Source: patent US20150239831A1, “INHIBITORS OF CENTRAL NERVOUS SYSTEM VASOACTIVE INHIBITORY PEPTIDE RECEPTOR 2” (The Trustees Of Columbia University In The City Of New York, priority 2012, published 2015)

Columns and labels:
Type in all cases: cell-based
Parameters in all cases: expressed in transfected cells; host or cells: HEK293 cells transfected with VIPR2 in pCDNA3.1 (as described)
VIPR2 [1] = target: T1, VIPR2 (Homo sapiens, UniProt P41587); assay: Inhibition of VIP-induced β-arrestin recruitment (% Activity Arrestin); settings: Batch 1
T1 sequence (P41587 24-438): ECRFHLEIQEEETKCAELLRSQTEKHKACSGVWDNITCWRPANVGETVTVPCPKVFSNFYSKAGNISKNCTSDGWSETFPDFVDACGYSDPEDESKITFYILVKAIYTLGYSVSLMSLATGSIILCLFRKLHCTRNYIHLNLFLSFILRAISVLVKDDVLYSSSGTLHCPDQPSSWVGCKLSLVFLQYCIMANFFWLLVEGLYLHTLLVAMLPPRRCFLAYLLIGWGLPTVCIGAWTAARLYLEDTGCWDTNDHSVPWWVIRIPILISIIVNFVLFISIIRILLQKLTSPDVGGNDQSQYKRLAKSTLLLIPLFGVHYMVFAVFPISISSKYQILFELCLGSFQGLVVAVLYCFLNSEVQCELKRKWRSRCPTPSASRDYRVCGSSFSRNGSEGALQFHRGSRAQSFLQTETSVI
Method in brief: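 Read-out is β-gal fragment complementation (luminescence) between ProLink-hVIPR2 and EA-β-arrestin2 in transiently transfected HEK293 cells. Cells rested overnight, then exposed to inhibitor 2 h at 37 °C before detection reagent (5 min–1 h, room temperature); values are % activity against VIP-driven recruitment.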

VIPR2 [2] = target: T1, VIPR2; assay: % Activity: inhibition of VIP-induced cAMP elevation and β-arrestin recruitment (Table 2)
Method in brief: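 Recruitment of β-arrestin measured by β-gal fragment complementation luminescence in HEK293 cells co-expressing VIPR2-ProLink and β-arrestin2-EA after 2 h compound at 37° C. VIP-driven cAMP rise in stable hVIPR2 HEK293 cells measured by HTRF after 30 min with inhibitor and VIP.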

VIPR2 [3] = target: T1, VIPR2; assay: Inhibition of VIP-induced cAMP elevation (% Activity cAMP); settings: Batch 1
Method in brief: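 HEK293 cells stably transfected with human VIPR2 were incubated with inhibitor and VIP for 30 min, then cAMP was detected by HTRF after at least 1 h at room temperature. The 665/620 nm ratio ×10,000 was calculated.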

| inhibition at 0.5 µM (VIPR2 [1]) [%] | inhibition at 1 µM (VIPR2 [1]) [%] | inhibition at 5 µM (VIPR2 [1]) [%] | % Activity (VIPR2 [2]) [%] | inhibition at 0.5 µM (VIPR2 [3]) [%] | inhibition at 1 µM (VIPR2 [3]) [%] | inhibition at 5 µM (VIPR2 [3]) [%] | SMILES |
| --- | --- | --- | --- | --- | --- | --- | --- |
| 58.1 | 83 | 92.9 | 95.7 | 42 | 63.1 | 98.5 | O=C(N[C@H]1c2ccccc2C[C@H]1O)[C@H](Cc1ccccc1)C[C@H](O)CNS(=O)(=O)c1ccc(C(F)(F)F)cc1 [F] |
| 62.8 | 80.4 | 90 | 94.1 | 42.2 | 63.5 | 98.2 | Cc1ccc(S(=O)(=O)NC[C@@H](O)C[C@@H](Cc2ccccc2)C(=O)N[C@H]2c3ccccc3C[C@H]2O)cc1 [I] |

Continued, molecule first:

| SMILES | inhibition at 0.5 µM (VIPR2 [1]) [%] | inhibition at 1 µM (VIPR2 [1]) [%] | inhibition at 5 µM (VIPR2 [1]) [%] | % Activity (VIPR2 [2]) [%] | inhibition at 0.5 µM (VIPR2 [3]) [%] | inhibition at 1 µM (VIPR2 [3]) [%] | inhibition at 5 µM (VIPR2 [3]) [%] |
| --- | --- | --- | --- | --- | --- | --- | --- |
| CC(=O)c1ccc(S(=O)(=O)NC[C@@H](O)C[C@@H](Cc2ccccc2)C(=O)N[C@H]2c3ccccc3C[C@H]2O)cc1 [K] | 58.3 | 78 | 88.7 | 92.35 | 38.6 | 61.1 | 96 |
| CC(C)c1ccc(S(=O)(=O)NC[C@@H](O)C[C@@H](Cc2ccccc2)C(=O)N[C@H]2c3ccccc3C[C@H]2O)cc1 [Compound A10] | 31.5 | 63.1 | 87.7 | 92.95 | 36.5 | 44.2 | 98.2 |
| N#Cc1ccc(S(=O)(=O)NC[C@@H](O)C[C@@H](Cc2ccccc2)C(=O)N[C@H]2c3ccccc3C[C@H]2O)cc1 [C] | 38.5 | 59.5 | 90.4 | 91.75 | 27.3 | 43.6 | 93.1 |
| COc1ccc(S(=O)(=O)NC[C@@H](O)C[C@@H](Cc2ccccc2)C(=O)N[C@H]2c3ccccc3C[C@H]2O)cc1 [E] | 54.1 | 76.7 | 89.4 | 91.6 | 33.9 | 45.9 | 93.8 |
